Test results as given in US6448266B1, “Substituted cyclobutylamine derivatives” (Daiichi Pharmaceutical Co., Ltd., priority 1997, dated 2002).
In brackets after ≈: the same amount, converted by molar mass. Where two headings read alike, the source gives them in different places.

Columns and labels:
Experiment in all cases: Antibacterial activity (MIC), standard method of the Japan Society of Chemotherapy
Format in all cases: cell-based
[1] = system: S. aureus, 209P
Protocol: (§1) The antibacterial activity of each compound of the present invention was measured in accordance with the standard method specified by the Japan Society of Chemotherapy, with the results shown in the following table as MIC values (μg/ml).

[2] = system: S. pneumoniae, J24
Protocol: as §1

[3] = system: Ps. aeruginasa, 32121
Protocol: as §1

[4] = system: Ps. aeruginosa, 32104
Protocol: as §1

[5] = system: S. flexneli, 2A 5503
Protocol: as §1

[6] = system: Str. faecalis, ATCC-19433
Protocol: as §1

[7] = system: Str. pyogenes, G-36
Protocol: as §1

[8] = system: S. aureus, 870307
Protocol: as §1

[9] = system: S. epidermidis, 56500
Protocol: as §1

[10] = system: E. coli, NIHJ
Protocol: as §1

[11] = system: Pr. mirabilis, IFO-3849
Protocol: as §1

[12] = system: Ser. marcescens, 10100
Protocol: as §1

[13] = system: S. maltophilia, IID-1275
Protocol: as §1

[14] = system: Pr. vulgaris, 08601
Protocol: as §1

[15] = Staphylococcus aureus, read-out: MIC
[16] = Streptococcus pneumoniae, read-out: MIC
[17] = Pseudomonas aeruginosa, read-out: MIC
[18] = Enterococcus faecalis, ATCC19433, read-out: MIC
[19] = Streptococcus pyogenes, G36, read-out: MIC
[20] = Staphylococcus epidermidis, read-out: MIC
[21] = Escherichia coli, read-out: MIC
[22] = Proteus mirabilis, IFO3849, read-out: MIC
[23] = Serratia marcescens, read-out: MIC
[24] = Stenotrophomonas maltophilia, IID1275, read-out: MIC
[25] = Proteus vulgaris, read-out: MIC

| Compound | MIC [1] | MIC [2] | MIC [3] | MIC [4] | MIC ([5]; S. flexneli, 2A 5503) | MIC [6] | MIC [1, 15] | MIC [2, 16] | MIC ([3]; read-out: MIC) | MIC [4, 17] | MIC [5] | MIC [6, 18] | MIC [7, 19] | MIC [8, 15] | MIC [9, 20] | MIC [10, 21] | MIC [11, 22] | MIC [12, 23] | MIC [13, 24] | MIC [14, 25] | also measured |
| --- | --- | --- | --- | --- | --- | --- | --- | --- | --- | --- | --- | --- | --- | --- | --- | --- | --- | --- | --- | --- | --- |
| Cc1c(N2CCC(C3(N)CC(F)C3)C2)c(F)c(N)c2c(=O)c(C(=O)O)cn([C@@H]3C[C@@H]3F)c12 (stereo partly drawn) [Inventive Example 1, 5-Amino-7-[3-(3-amino-1-fluorocyclobutan-3-yl)pyrrolidin-1-yl]-6-fluoro-1-[2-(S)-fluoro-1-(R)-cyclopropyl]-8-methyl-1,4-dihydro-4-oxoguinoline-3-carboxylic acid] | ≦0.003 μg/ml | ≦0.003 μg/ml | 0.05 mg/L (≈ 0.111 µM) | 0.20 mg/L (≈ 0.444 µM) | ≦0.003 μg/ml | 0.025 mg/L (≈ 0.0555 µM) |  |  |  |  |  |  |  |  |  |  |  |  |  |  | MIC [7]: ≦0.003 μg/ml; MIC [8]: 0.013 mg/L (≈ 0.0289 µM); MIC [9]: ≦0.003 μg/ml; MIC [10]: ≦0.003 μg/ml; MIC [11]: 0.025 mg/L (≈ 0.0555 µM); MIC [12]: 0.10 mg/L (≈ 0.222 µM); MIC [13]: 0.05 mg/L (≈ 0.111 µM); MIC [14]: 0.013 mg/L (≈ 0.0289 µM) |
| COc1c(N2CCC(C3(N)CC(F)(F)C3)C2)c(F)cc2c(=O)c(C(=O)O)cn([C@@H]3C[C@@H]3F)c12 (stereo partly drawn) [Inventive Example 3, 7-[3-(3-Amino-1,1-difluorocyclobutan-3-yl)pyrrolidin-1-yl]-6-fluoro-1-[2-(S)-fluoro-1-(R)-cyclopropyl]-8-methoxy-1,4-dihydro-4-oxoquinoline-3-carboxylic acid] |  |  |  |  |  |  | ≤ 0.003 mg/L | 0.006 mg/L (≈ 0.0128 µM) | 0.39 mg/L (≈ 0.831 µM) | 0.78 mg/L (≈ 1.66 µM) | 0.025 mg/L (≈ 0.0533 µM) | 0.025 mg/L (≈ 0.0533 µM) | 0.006 mg/L (≈ 0.0128 µM) | 0.025 mg/L (≈ 0.0533 µM) | 0.013 mg/L (≈ 0.0277 µM) | 0.013 mg/L (≈ 0.0277 µM) | 0.1 mg/L (≈ 0.213 µM) | 0.39 mg/L (≈ 0.831 µM) | 0.2 mg/L (≈ 0.426 µM) | 0.025 mg/L (≈ 0.0533 µM) |  |
| COc1c(N2CCC(C3(N)CC(F)C3)C2)c(F)cc2c(=O)c(C(=O)O)cn([C@@H]3C[C@@H]3F)c12 (stereo partly drawn) [Inventive Example 6, 7-[3-(3-Amino-1-fluoro-cyclobutan-3-yl)-pyrrolidin-1-yl]-6-fluoro-1-[2-(S)-fluoro-1-(R)-cyclopropyl]-8-methoxy-1,4-dihydro-4-oxoquinoline-3-carboxylic acid] |  |  |  |  |  |  | ≤ 0.003 mg/L | ≤ 0.003 mg/L | 0.2 mg/L (≈ 0.443 µM) | 0.39 mg/L (≈ 0.864 µM) | 0.013 mg/L (≈ 0.0288 µM) | 0.025 mg/L (≈ 0.0554 µM) | 0.006 mg/L (≈ 0.0133 µM) | 0.025 mg/L (≈ 0.0554 µM) | 0.006 mg/L (≈ 0.0133 µM) | ≤ 0.003 mg/L | 0.05 mg/L (≈ 0.111 µM) | 0.1 mg/L (≈ 0.222 µM) | 0.2 mg/L (≈ 0.443 µM) | 0.025 mg/L (≈ 0.0554 µM) |  |
| Cc1c(N2CCC(C3(N)CC(F)(F)C3)C2)c(F)c(N)c2c(=O)c(C(=O)O)cn([C@@H]3C[C@@H]3F)c12 (stereo partly drawn) [Inventive Example 5, 5-Amino-7-[3-(3-amino-1,1-difluorocyclobutan-3-yl)pyrrolidin-1-yl]-6-fluoro-1-[2-(S)-fluoro-1-(R)-cyclopropyl]-8-methyl-1,4-dihydro-4-oxoguinoline-3-carboxylic acid] | ≦0.003 μg/ml | ≦0.003 μg/ml | 0.20 mg/L (≈ 0.427 µM) | 0.39 mg/L (≈ 0.833 µM) | 0.006 mg/L (≈ 0.0128 µM) | 0.025 mg/L (≈ 0.0534 µM) |  |  |  |  |  |  |  |  |  |  |  |  |  |  | MIC [7]: 0.006 mg/L (≈ 0.0128 µM); MIC [8]: 0.025 mg/L (≈ 0.0534 µM); MIC [9]: ≦0.003 μg/ml; MIC [10]: 0.006 mg/L (≈ 0.0128 µM); MIC [11]: 0.05 mg/L (≈ 0.107 µM); MIC [12]: 0.20 mg/L (≈ 0.427 µM); MIC [13]: 0.10 mg/L (≈ 0.213 µM); MIC [14]: 0.05 mg/L (≈ 0.107 µM) |
| Nc1c(F)c(N2CCC(C3(N)CC(F)C3)C2)c(F)c2c1c(=O)c(C(=O)O)cn2[C@@H]1C[C@@H]1F (stereo partly drawn) [Inventive Example 7, 5-Amino-7-[3-(3-amino-1-fluoro-cyclobutan-3-yl)pyrrolidin-1-yl]-6,8-difluoro-1-[2-(S)-fluoro-1-(R)-cyclopropyl]-1,4-dihydro-4-oxoquinoline-3-carboxylic acid] |  |  |  |  |  |  | ≤ 0.003 mg/L | ≤ 0.003 mg/L | 0.05 mg/L (≈ 0.11 µM) | 0.1 mg/L (≈ 0.22 µM) | ≤ 0.003 mg/L | 0.025 mg/L (≈ 0.055 µM) | ≤ 0.003 mg/L | 0.006 mg/L (≈ 0.0132 µM) | ≤ 0.003 mg/L | ≤ 0.003 mg/L | 0.025 mg/L (≈ 0.055 µM) | 0.05 mg/L (≈ 0.11 µM) | 0.05 mg/L (≈ 0.11 µM) | 0.025 mg/L (≈ 0.055 µM) |  |
